# Values quoted from earlier work in paper PMC10410440, “Preclinical PK investigation of a novel IDO1/TDO dual inhibitor—SHR9146 in mouse plasma and tissues by LC-MS/MS” (Frontiers in Oncology, 2023).
# Columns and labels:
# [1] = test system: colon cancer (MC38) cells; design: method as in earlier work; details: SHR9146 combined with the PD-1 antibody vs single PD-1 antibody or SHR9146, and vs PD-1 antibody combined with INCB024360 or NLG0919100; cited from earlier work
# [2] = test system: advanced solid tumors; design: method as in doi:10.1200/JCO.2021.39.15_suppl.3101; details: SHR9146 plus camrelizumab in combination with/without apatinib; cited from earlier work
smiles,measurement,setting,value
OCCn1cc(-c2ccc(N3CCC([C@H]4c5c(F)cccc5-c5cncn54)CC3)cc2)cn1 [SHR9146],inhibitory effect on colon cancer (MC38) cells,[1],significantly better inhibitory effect
same,antitumor activity and safety in patients,[2],promising antitumor activity with acceptable safety
